Test results: ChEMBL document CHEMBL4020754, “Isolation of the antibiotic pseudopyronine B and SAR evaluation of C3/C6 alkyl analogs” (Bioorg Med Chem Lett, 2017)
In brackets after ≈: the same amount, converted by molar mass.

How the values were obtained:
Type in all cases: functional
Pseudomonas aeruginosa = assay: Antibacterial activity against Pseudomonas aeruginosa ATCC 9027 measured after 24 hrs; details: ATCC 9027, 24 h
Escherichia coli = assay: Antibacterial activity against Escherichia coli ATCC 15022 measured after 24 hrs; details: ATCC 15022, 24 h
Bacillus subtilis = assay: Antibacterial activity against Bacillus subtilis ATCC 11774 measured after 24 hrs; details: ATCC 11774, 24 h
Staphylococcus aureus = assay: Antibacterial activity against Staphylococcus aureus ATCC 29213 measured after 24 hrs; details: ATCC 29213, 24 h

CCCCCCCC(=O)c1c(O)cc(CCCCCCC)oc1=O
IC50 (Pseudomonas aeruginosa): > 1000 µg/mL
IC50 (Escherichia coli): > 1000 µg/mL
IC50 (Bacillus subtilis): 27 µg/mL (≈ 80.2 µM)
IC50 (Staphylococcus aureus): 48 µg/mL (≈ 143 µM)

CCCCc1c(O)cc(CCC)oc1=O
IC50 (Pseudomonas aeruginosa): > 1000 µg/mL
IC50 (Escherichia coli): > 1000 µg/mL
IC50 (Bacillus subtilis): 46 µg/mL (≈ 219 µM)
IC50 (Staphylococcus aureus): 33 µg/mL (≈ 157 µM)

CCCCC(=O)c1c(O)cc(CCCC)oc1=O
IC50 (Pseudomonas aeruginosa): > 1000 µg/mL
IC50 (Escherichia coli): 223 µg/mL (≈ 884 µM)
IC50 (Bacillus subtilis): 227 µg/mL (≈ 900 µM)
IC50 (Staphylococcus aureus): 24 µg/mL (≈ 95.1 µM)

CCCCCCCc1c(O)cc(CCCCCC)oc1=O
IC50 (Pseudomonas aeruginosa): > 1000 µg/mL
IC50 (Escherichia coli): > 1000 µg/mL
IC50 (Bacillus subtilis): 0.7 µg/mL (≈ 2.38 µM)
IC50 (Staphylococcus aureus): 0.04 µg/mL (≈ 0.136 µM)

CCc1c(O)cc(C)oc1=O
IC50 (Pseudomonas aeruginosa): > 1000 µg/mL
IC50 (Escherichia coli): 300 µg/mL (≈ 1950 µM)
IC50 (Bacillus subtilis): > 1000 µg/mL
IC50 (Staphylococcus aureus): > 1000 µg/mL

CCCC(=O)c1c(O)cc(CCC)oc1=O
IC50 (Pseudomonas aeruginosa): > 1000 µg/mL
IC50 (Escherichia coli): 248 µg/mL (≈ 1110 µM)
IC50 (Bacillus subtilis): 1000 µg/mL (≈ 4460 µM)
IC50 (Staphylococcus aureus): 46 µg/mL (≈ 205 µM)

CCCCCc1c(O)cc(CCCC)oc1=O
IC50 (Pseudomonas aeruginosa): > 1000 µg/mL
IC50 (Escherichia coli): > 1000 µg/mL
IC50 (Bacillus subtilis): 23 µg/mL (≈ 96.5 µM)
IC50 (Staphylococcus aureus): 4.6 µg/mL (≈ 19.3 µM)

CCCCCCCCc1c(O)cc(CCCCCCC)oc1=O
IC50 (Pseudomonas aeruginosa): > 1000 µg/mL
IC50 (Escherichia coli): > 1000 µg/mL
IC50 (Bacillus subtilis): 24 µg/mL (≈ 74.4 µM)
IC50 (Staphylococcus aureus): > 1000 µg/mL

CCCc1c(O)cc(CC)oc1=O
IC50 (Pseudomonas aeruginosa): > 1000 µg/mL
IC50 (Escherichia coli): 278 µg/mL (≈ 1530 µM)
IC50 (Bacillus subtilis): 203 µg/mL (≈ 1110 µM)
IC50 (Staphylococcus aureus): 244 µg/mL (≈ 1340 µM)

CCCCCCCCCc1c(O)cc(CCCCCCCC)oc1=O
IC50 (Pseudomonas aeruginosa): > 1000 µg/mL
IC50 (Escherichia coli): > 1000 µg/mL
IC50 (Bacillus subtilis): > 1000 µg/mL
IC50 (Staphylococcus aureus): > 1000 µg/mL

CCC(=O)c1c(O)cc(CC)oc1=O
IC50 (Pseudomonas aeruginosa): > 1000 µg/mL
IC50 (Escherichia coli): 257 µg/mL (≈ 1310 µM)
IC50 (Bacillus subtilis): > 1000 µg/mL
IC50 (Staphylococcus aureus): 116 µg/mL (≈ 591 µM)

CCCCCCC(=O)c1c(O)cc(CCCCCC)oc1=O
IC50 (Pseudomonas aeruginosa): > 1000 µg/mL
IC50 (Escherichia coli): > 1000 µg/mL
IC50 (Bacillus subtilis): 3.5 µg/mL (≈ 11.3 µM)
IC50 (Staphylococcus aureus): 1.5 µg/mL (≈ 4.86 µM)

CCCCCCc1c(O)cc(CCCCC)oc1=O
IC50 (Pseudomonas aeruginosa): > 1000 µg/mL
IC50 (Escherichia coli): > 1000 µg/mL
IC50 (Bacillus subtilis): 3.3 µg/mL (≈ 12.4 µM)
IC50 (Staphylococcus aureus): 2.4 µg/mL (≈ 9.01 µM)

CCCCCCCCC(=O)c1c(O)cc(CCCCCCCC)oc1=O
IC50 (Pseudomonas aeruginosa): > 1000 µg/mL
IC50 (Escherichia coli): > 1000 µg/mL
IC50 (Bacillus subtilis): > 1000 µg/mL
IC50 (Staphylococcus aureus): > 1000 µg/mL

CCCCCC(=O)c1c(O)cc(CCCCC)oc1=O
IC50 (Pseudomonas aeruginosa): > 1000 µg/mL
IC50 (Escherichia coli): > 1000 µg/mL
IC50 (Bacillus subtilis): 21 µg/mL (≈ 74.9 µM)
IC50 (Staphylococcus aureus): 3.8 µg/mL (≈ 13.6 µM)

CCCCCCCc1cc(O)c(CCCCCC)c(=O)o1 [PSEUDOPYRONINES B]
IC50 (Pseudomonas aeruginosa): > 1000 µg/mL
IC50 (Escherichia coli): > 1000 µg/mL
IC50 (Bacillus subtilis): 0.3 µg/mL (≈ 1.02 µM)
IC50 (Staphylococcus aureus): 0.1 µg/mL (≈ 0.34 µM)
